This note sets out measurements from patent publication US20250188044A1 (HARBIN MEDISAN PHARMACEUTICAL CO., LTD., priority 2021, published 2025).

Data set [1] can be described thus: Metabolic stability in human liver microsomes. Type of data set: in vitro ADME. As to conditions: for half-life: human liver microsomes 0.75 mg/mL, NADPH, 0-60 min. How it is done:
A 500 μM solution of the compound in acetonitrile was prepared and diluted to obtain a 1.5 μM drug working solution with a 0.1 M potassium phosphate solution. The drug working solution was co-incubated with a human liver microsome working solution at a final concentration of 0.75 mg/mL and an NADPH solution (final concentration: 550 μM), and the incubation was terminated by adding an acetonitrile solution at 0 min, 15 min, 30 min, 45 min, and 60 min. The residual amount of the compound that remained in the system at each time point was detected by using LC/MS. The absolute value k of the slope was determined by plotting the natural logarithm of the percentage of the residual amount of the compound with the time, and the calculation was performed according to the formula: T1/2 (half-life)=ln2/k=0.693/k.
In general terms: Microsomes from liver hold many membrane-bound enzymes, among them those of drug oxidation.

A further data set has as its target T1, PPARδ (Homo sapiens, UniProt Q03181).
T1 construct: expressed in transfected cells; host or cells: Cos-7
T1 sequence (Q03181 139-441 limits assumed): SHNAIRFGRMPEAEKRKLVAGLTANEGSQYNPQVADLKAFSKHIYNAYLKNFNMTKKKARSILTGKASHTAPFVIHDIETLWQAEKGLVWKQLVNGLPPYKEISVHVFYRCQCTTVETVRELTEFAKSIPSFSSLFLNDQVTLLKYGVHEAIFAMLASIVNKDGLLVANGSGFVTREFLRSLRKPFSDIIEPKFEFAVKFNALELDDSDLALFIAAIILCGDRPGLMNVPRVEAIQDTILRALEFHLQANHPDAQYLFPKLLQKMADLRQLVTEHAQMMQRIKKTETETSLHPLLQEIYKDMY
Description: Gal4-PPARδ(LBD) reporter gene agonistic activity assay in Cos-7 cells. It is filed as cell-based. As to conditions: for agonistic activity for PPARδ (EC50 level, in words): Cos-7 reporter assay. How it is done:
(§1) Cos-7 cells (African green monkey kidney fibroblasts, commonly used tool cells) were cultured in a 10 cm cell culture dish in a DMEM complete medium containing 10% fetal bovine serum. When the cells grew to a density of about 70%, the medium was replaced with a fresh medium for later transfection. […] The plasmid working solution was then added to the cell culture dish for cell transfection. […] Test compounds were prepared into appropriate test concentrations with a complete medium and then added to the 96-well plate. […] 10 μL of lysate was pipetted into a white opaque 384-well plate, and then 10 μL of reporter gene assay buffer (purchased from Shanghai Beyotime Biological Tech. Co., Ltd.) was added. The bioluminescence was detected by using a multimode microplate reader, and the corresponding half maximal effective concentration (EC50) value was calculated according to the detection value.
For orientation: Reporter assays use an easily measured gene product as a stand-in for the process of interest.

Another data set addresses T2, PPARγ (Homo sapiens, UniProt P37231).
T2 construct: hPPARγ (281aa-554aa); expressed in transfected cells; host or cells: Cos-7
T2 sequence (P37231 232-505 limits assumed): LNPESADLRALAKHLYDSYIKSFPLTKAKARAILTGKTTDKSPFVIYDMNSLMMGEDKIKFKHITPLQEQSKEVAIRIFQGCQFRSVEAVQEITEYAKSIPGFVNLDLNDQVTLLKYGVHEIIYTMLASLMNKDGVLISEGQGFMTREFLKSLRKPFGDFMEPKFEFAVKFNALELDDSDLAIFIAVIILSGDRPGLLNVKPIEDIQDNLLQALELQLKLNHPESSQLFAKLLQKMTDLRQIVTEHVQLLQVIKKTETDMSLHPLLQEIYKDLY
In words: Gal4-PPARγ(LBD) reporter gene agonistic activity assay in Cos-7 cells. It is filed as cell-based. How it is done:
as §1

The target in the next data set is T3, PPARα (Homo sapiens, UniProt Q07869).
T3 construct: hPPARα (279aa-580aa); expressed in transfected cells; host or cells: Cos-7
T3 sequence (Q07869 167-468 limits assumed): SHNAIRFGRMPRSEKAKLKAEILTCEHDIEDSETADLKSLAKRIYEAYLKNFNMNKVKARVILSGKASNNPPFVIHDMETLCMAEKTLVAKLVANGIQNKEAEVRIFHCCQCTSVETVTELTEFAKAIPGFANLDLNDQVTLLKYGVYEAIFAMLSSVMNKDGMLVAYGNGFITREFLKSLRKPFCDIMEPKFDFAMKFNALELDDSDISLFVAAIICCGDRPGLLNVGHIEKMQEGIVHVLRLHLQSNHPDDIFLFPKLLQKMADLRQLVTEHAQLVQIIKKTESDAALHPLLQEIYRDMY
In words: Gal4-PPARα(LBD) reporter gene agonistic activity assay in Cos-7 cells. It is filed as cell-based. As to conditions: for EC50: Cos-7 cells, Gal4-PPARα(LBD) reporter, 16 h, 100% = GW7647 10 nM; for agonistic activity for PPARα (EC50 level, in words): Cos-7 reporter assay. How it is done:
as §1

Where [2] appears, read: Cos-7 cells, Gal4-PPARγ(LBD) reporter, 16 h, 100% = Rosiglitazone 1 μM.
The mark [3] stands for this setting: Cos-7 cells, Gal4-PPARδ(LBD) reporter, 16 h, 100% = GW501516 10 nM.

Read-outs that look alike come from different tables or passages of the source. Some results are limits rather than exact numbers.

In the case of `Cc1cc(SCn2ncn(-c3ccc(C(F)(F)F)cc3)c2=O)ccc1OCC(=O)O` [Compound 16, 2-(2-Methyl-4-(((5-oxo-4-(4-(trifluoromethyl)phenyl)-4,5-dihydro-1H-1,2,4-triazol-1-yl)methyl)thio)phenoxy)acetic acid], in data set [1], the “metabolic stability in human liver microsomes (in words)” value (shortened to “metabolic stability”) was “very good metabolic stability in human liver microsomes” and the half-life (in general, the time in which the quantity being followed falls by half) is more than 2 h.
For `Cc1cc(Cn2ncn(-c3ccc(Br)cc3)c2=O)cc(C)c1OC(C)(C)C(=O)O` [Compound 55, 2-(4-((4-(4-Bromophenyl)-5-oxo-4,5-dihydro-1H-1,2,4-triazol-1-yl)methyl)-2,6-dimethylphenoxy)-2-methylpropionic acid], in data set [1], the “metabolic stability” value is on record as “very good metabolic stability in human liver microsomes” and the half-life was more than 2 h. For the same compound, at PPARδ, the 50% effective concentration (EC50) (commonly the concentration at which the effect is half-maximal) worked out at 0.022 µM and the “agonistic activity for PPARδ (EC50 level, in words)” value (“agonistic activity for PPARδ” for short) is on record as “at nanomolar levels”. At PPARγ (setting [2]), this compound had a 50% effective concentration (EC50) of 1.78 µM.
Regarding `Cc1ccc(-n2cnn(Cc3cc(C)c(OC(C)(C)C(=O)O)c(C)c3)c2=O)cc1` [Compound 65, 2-(2,6-Dimethyl-4-((5-oxo-4-(p-tolyl)-4,5-dihydro-1H-1,2,4-triazol-1-yl)methyl)phenoxy)-2-methylpropionic acid], the EC50 was determined as 0.248 µM at PPARδ (setting [3]), 0.18 µM at PPARα and 0.955 µM at PPARγ (setting [2]).
The like results for `Cc1cc(Cn2ncn(-c3ccc(Cl)cc3)c2=O)cc(C)c1OC(C)(C)C(=O)O` [Compound 67, 2-(4-((4-(4-Chlorophenyl)-5-oxo-4,5-dihydro-1H-1,2,4-triazol-1-yl)methyl)-2,6-dimethylphenoxy)-2-methylpropionic acid] were, in that order, 0.047 µM, 0.167 µM and 1.83 µM.
As to `Cc1cc(Cn2ncn(-c3ccc(OC(F)(F)F)cc3)c2=O)ccc1OC(C)(C)C(=O)O` [Compound 79, 2-Methyl-2-(2-methyl-4-((5-oxo-4-(4-(trifluoromethoxy)phenyl)-4,5-dihydro-1H-1,2,4-triazol-1-yl)methyl)phenoxy)propionic acid], the figures for the EC50 at PPARδ (setting [3]), on PPARα and at PPARγ (setting [2]) were 0.62 µM, 0.341 µM and 1.89 µM, respectively.
The like results for `CC(C)(Oc1ccc(Cn2ncn(-c3ccc(OC(F)(F)F)cc3)c2=O)cc1OC(F)(F)F)C(=O)O` [Compound 103, 2-Methyl-2-(4-((5-oxo-4-(4-(trifluoromethoxy)phenyl)-4,5-dihydro-1H-1,2,4-triazol-1-yl)methyl)-2-(trifluoromethoxy)phenoxy)propionic acid] were, in that order, 0.278 µM, 0.215 µM and 4.68 µM.
For `CC(C)(Oc1ccc(Cn2ncn(-c3ccc(OC(F)(F)F)cc3)c2=O)cc1Cl)C(=O)O` [Compound 105], in that order: 0.323 µM, 0.172 µM and 4.92 µM.
Regarding `COc1ccc(-n2cnn(Cc3cc(C)c(OC(C)(C)C(=O)O)c(C)c3)c2=O)cc1` [Compound 107, 2-(4-((4-(4-Methoxyphenyl)-5-oxo-4,5-dihydro-1H-1,2,4-triazol-1-yl)methyl)-2,6-dimethylphenoxy)-2-methylpropionic acid], the concentration for a half-maximal effect (EC50) was determined as 0.278 µM on PPARδ (setting [3]), 0.144 µM on PPARα and 2.02 µM on PPARγ (setting [2]).
For `Cc1cc(Cn2ncn(-c3ccc(C(C)C)cc3)c2=O)cc(C)c1OC(C)(C)C(=O)O` [Compound 115, 2-(4-((4-(4-Isopropylphenyl)-5-oxo-4,5-dihydro-1H-1,2,4-triazol-1-yl)methyl)-2,6-dimethylphenoxy)-2-methylpropionic acid], the EC50 is 0.008 µM at PPARα and 1.76 µM on PPARγ (setting [2]).
Take `CC(C)(Oc1ccc(Cn2ncn(-c3ccc(C(F)(F)F)cc3)c2=O)cc1Cl)C(=O)O` [Compound 125, 2-(2-Chloro-4-((5-oxo-4-(4-(trifluoromethyl)phenyl)-4,5-dihydro-1H-1,2,4-triazol-1-yl)methyl)phenoxy)-2-methylpropionic acid]: the EC50 turned out to be 0.229 µM at PPARδ (setting [3]), 0.162 µM at PPARα and 2.78 µM at PPARγ (setting [2]).
For the compound `CC(C)(Oc1c(Cl)cc(Cn2ncn(-c3ccc(C(F)(F)F)cc3)c2=O)cc1Cl)C(=O)O` [Compound 129, 2-(2,6-Dichloro-4-((5-oxo-4-(4-(trifluoromethyl)phenyl)-4,5-dihydro-1H-1,2,4-triazol-1-yl)methyl)phenoxy)-2-methylpropionic acid], in data set [1], the “metabolic stability” value is given as “very good metabolic stability in human liver microsomes” and the half-life is more than 2 h. For the same compound, on PPARα, the EC50 was 0.023 µM and the “agonistic activity for PPARα (EC50 level, in words)” value is “at nanomolar levels”. On PPARγ (setting [2]), the EC50 was determined as 4.91 µM.
For `CC(C)(Oc1ccc(Cn2ncn(-c3ccc(OC(F)(F)F)cc3)c2=O)cc1C(F)(F)F)C(=O)O` [Compound 157, 2-Methyl-2-(4-((5-oxo-4-(4-(trifluoromethoxy)phenyl)-4,5-dihydro-1H-1,2,4-triazol-1-yl)methyl)-2-(trifluoromethyl)phenoxy)propionic acid], the values for the EC50 on PPARα and at PPARγ (setting [2]) were 0.273 µM and 1.66 µM, respectively.
As for `Cc1cc(Cn2ncn(-c3ccc(C(F)(F)F)cc3)c2=O)cc(C(F)(F)F)c1OC(C)(C)C(=O)O` [Compound 165, 2-Methyl-2-(2-methyl-4-((5-oxo-4-(4-(trifluoromethyl)phenyl)-4,5-dihydro-1H-1,2,4-triazol-1-yl)methyl)-6-(trifluoromethyl)phenoxy)propionic acid], in data set [1], the “metabolic stability” value is given as “very good metabolic stability in human liver microsomes” and the half-life is more than 2 h. In addition, at PPARδ, the EC50 came to 0.001 µM and the “agonistic activity for PPARδ” value is recorded as “at nanomolar levels”. The concentration giving a half-maximal response (EC50) at PPARγ (setting [2]) is 0.812 µM.
With `CCc1cc(Cn2ncn(-c3ccc(OC(F)(F)F)cc3)c2=O)cc(CC)c1OC(C)(C)C(=O)O` [Compound 189, 2-(2,6-Diethyl-4-((5-oxo-4-(4-(trifluoromethoxy)phenyl)-4,5-dihydro-1H-1,2,4-triazol-1-yl)methyl)phenoxy)-2-methylpropionic acid], the figures for the 50% effective concentration (EC50) on PPARδ (setting [3]), on PPARα and on PPARγ were 0.042 µM, 0.059 µM and 2.19 µM, respectively. On PPARδ, the “agonistic activity for PPARδ” value is recorded as “at nanomolar levels”. Also, the “agonistic activity for PPARα (EC50 level, in words)” value at PPARα is given as “at nanomolar levels”.
For `Cc1cc(SCn2ncn(-c3ccc(C(F)(F)F)cc3)c2=O)cc(C)c1OC(C)(C)C(=O)O` [Compound 198, 2-(2,6-Dimethyl-4-(((5-oxo-4-(4-(trifluoromethyl)phenyl)-4,5-dihydro-1H-1,2,4-triazol-1-yl)methyl)thio)phenoxy)-2-methylpropionic acid], the EC50 at PPARα was 0.289 µM; at PPARγ (setting [2]), 2.85 µM.
